Key:
[1] = target: mGAT2 (Mus musculus (Mouse), UniProt P31651); assay: [3H]GABA uptake inhibition, mGAT2 in HEK293 cells; assay type: cell-based; conditions: inhibitor at 100 μM; remaining reuptake
Protocol: Exemplary compounds according to the invention were screened at the Ludwig-Maximilian University of Munich to determine the inhibitory ability towards four mouse GAT transporters (mGAT1-mGAT4). […] The biological material was stably transfected human embryonic kidney HEK293 cells, expressing genes to the appropriate transporters. The generated radioactivity was measured with a liquid scintillation counter. […] These determinations were made according to the procedure described in detail in A. Kragler, G. Höfner, K. T. Wanner, Novel parent structures for inhibitors of the murine GABA transporters mGAT3 and mGAT4, Eur. J. Pharmacol. 519 (2005) 43-47.

[2] = tested on: Albino Swiss CD-1 mice; assay: Rotarod test; assay type: in vivo
Protocol: The research was conducted at the Department of Pharmacodynamics, Faculty of Pharmacy, Jagiellonian University in Krakow. All procedures were approved by the 1st and 2nd Local Ethics Committee for Animal Experiments in Krakow (consent no. 53/2017 and 250/2019) and were performed in accordance with the applicable European Union regulation (86/609/EEC). Males of two different strains of domestic mice (Mus musculus) were used in the study: Albino Swiss CD-1 (body weight approx. 20-24 g, age approx. 6 weeks) and C57BL/6J mice (body weight approx. 18-22 g, age approx. 6 weeks). The CD-1 strain was used for the passive avoidance, spontaneous mobility and rotating rod tests, while the C57BL/6J mice were used for the Morris water maze and the Barnes' maze. The animals were kept in standard, appropriately sized cages, divided into groups with a maximum of 10 animals. The animals in the study groups in the learning phase were intraperitoneally administered the test compound 1 h before the start of the experiments (doses in the preliminary test, i.e. in the passive avoidance test: 10, 30 and 60 mg/kg), and 30 minutes later, 1 mg/kg of scopolamine subcutaneously. Two control groups were used in the tests to assess the procognitive activity of JT-3—one of them received saline and the other saline and scopolamine.
Before the experiment, the mice were adequately trained (3 days, rod revolving at 18 rpm). The device consists of a rod set in a horizontal position. It is 75 cm long, divided into 4 tracks, and is set in rotation by an electric motor. This metal rod is placed 50 cm above the table to discourage mice from jumping off it. On the day of the actual test, 24 h after the animals' last training, the mice were placed sequentially on the bar for 60 s (for each rotation speed). The rod rotation speed was set to 6, 18, and 24 rpm, respectively. The inability of the mice to stay on the rod for 60 s was considered a disorder of motor coordination.

mGAT2, sequence (P31651 whole entry): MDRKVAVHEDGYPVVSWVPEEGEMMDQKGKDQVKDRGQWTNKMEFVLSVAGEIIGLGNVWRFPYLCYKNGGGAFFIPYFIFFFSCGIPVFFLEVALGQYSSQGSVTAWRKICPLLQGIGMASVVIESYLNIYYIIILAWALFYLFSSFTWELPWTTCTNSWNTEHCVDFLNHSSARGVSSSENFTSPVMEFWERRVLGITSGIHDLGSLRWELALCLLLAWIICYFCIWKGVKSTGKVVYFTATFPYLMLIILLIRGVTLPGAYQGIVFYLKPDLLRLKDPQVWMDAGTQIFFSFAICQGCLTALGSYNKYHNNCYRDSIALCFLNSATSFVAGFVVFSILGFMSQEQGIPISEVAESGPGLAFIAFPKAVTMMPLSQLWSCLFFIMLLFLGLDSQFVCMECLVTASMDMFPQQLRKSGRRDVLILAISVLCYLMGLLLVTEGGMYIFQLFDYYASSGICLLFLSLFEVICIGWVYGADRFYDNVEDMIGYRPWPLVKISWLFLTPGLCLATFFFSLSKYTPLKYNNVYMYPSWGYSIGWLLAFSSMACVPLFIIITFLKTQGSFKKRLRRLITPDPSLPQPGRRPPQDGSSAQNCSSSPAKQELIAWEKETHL

Question: How did the “percentage of [3H]GABA reuptake retained, mGAT2” value [1] turn out when `O[C@H](CNCC1CC1)[C@H](Cc1ccccc1)NC1c2ccccc2-c2ccccc21` [JT-3, (2R,3S)-3-((9H-fluoren-9-yl)amino)-1-((cyclopropylmethyl)amino)-4-phenylbutan-2-ol] was run?
Answer: Its value is 51%.

Question: What about the “influence on motor coordination” value ([2]; 10 mg/kg) of the same compound?
Answer: Its value is “No negative influence”.

Question: And the “time kept on the bar” value ([2]; 10 mg/kg and 30 mg/kg, speeds of 6, 18, and 24 rpm, all animals)?
Answer: The value was 60 s.

Question: And the “influence on motor coordination” value ([2]; 30 mg/kg)?
Answer: The value was “No negative influence”.

Reference: patent US12492163B2, “9H-fluorene derivatives or their pharmaceutically acceptable salts” (priority 2020, dated 2025)
